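96-well plates; 48 h exposure; 5 concentrations. Endpoints by linear interpolation between flanking doses. Not reached: highest tested concentration assigned. At the GI50, growth is halved.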 Active and inactive are the calls of the source. Rule as the data show it: active = GI50 up to about 1.1 µM and inactive = higher.
Key:
Experiment in all cases: growth of human tumour cells (NCI), 48 h
CAKI-1 = test system: CAKI-1
CCRF-CEM = test system: CCRF-CEM
HCC 2998 = test system: HCC 2998
HCT-15 = test system: HCT-15
HOP-92 = test system: HOP-92
IGROV-1 = test system: IGROV-1
KM12 = test system: KM12
M14 = test system: M14
MOLT-4 = test system: MOLT-4
NCI-H226 = test system: NCI-H226
RPMI-8226 = test system: RPMI-8226
SF-268 = test system: SF-268
SK-MEL-5 = test system: SK-MEL-5
SK-OV-3 = test system: SK-OV-3
T47D = test system: T47D
TK-10 = test system: TK-10
UACC-257 = test system: UACC-257
NCI-H522 = test system: NCI-H522
OVCAR-5 = test system: OVCAR-5
MDA-N = test system: MDA-N

Structure (SMILES) | GI50 (CAKI-1) | GI50 (CCRF-CEM) | GI50 (HCC 2998) | GI50 (HCT-15) [µM] | GI50 (HOP-92) | GI50 (IGROV-1) | GI50 (KM12) | GI50 (M14) | GI50 (MOLT-4) | GI50 (NCI-H226) | GI50 (RPMI-8226) | GI50 (SF-268) | GI50 (SK-MEL-5) | GI50 (SK-OV-3) | GI50 (T47D) | GI50 (TK-10) | GI50 (UACC-257) | GI50 (NCI-H522) | GI50 (OVCAR-5) | GI50 (MDA-N)
COc1ccc2c(=O)c3c([nH]c2c1)OCC3=O | > 100 µM (inactive) | > 100 µM (inactive) | > 100 µM (inactive) | > 100 | > 100 µM (inactive) | > 100 µM (inactive) | > 100 µM (inactive) | > 100 µM (inactive) | > 100 µM (inactive) | > 100 µM (inactive) | > 100 µM (inactive) | > 100 µM (inactive) | > 100 µM (inactive) | > 100 µM (inactive) | > 100 µM (inactive) | > 100 µM (inactive) | > 100 µM (inactive) |  |  | 
COc1ccc(C2=C(Cl)C(=O)N(c3ccc(OC)cc3OC)C(=O)C2(Cl)Cl)cc1 | 11.9 µM (inactive) |  |  | 14.2 | 9.77 µM (inactive) | 18.5 µM (inactive) | 17.1 µM (inactive) | 14.6 µM (inactive) | 5.07 µM (inactive) | 11.9 µM (inactive) |  | 18.1 µM (inactive) | 14.9 µM (inactive) | 47.3 µM (inactive) | 11.8 µM (inactive) | 18.9 µM (inactive) | 17.8 µM (inactive) | 14.3 µM (inactive) | 14.4 µM (inactive) | 
CCCCc1ccc(Nc2nc(SC)c3[nH]cnc3n2)cc1 | 16.9 µM (inactive) | 6.19 µM (inactive) | > 80.4 µM (inactive) | > 32.9 | 15.5 µM (inactive) | 24.7 µM (inactive) | 17.9 µM (inactive) | > 100 µM (inactive) | 2.81 µM (inactive) | > 73.6 µM (inactive) | > 56 µM (inactive) | 65.5 µM (inactive) | 17.7 µM (inactive) | > 43.5 µM (inactive) | > 100 µM (inactive) | 45.2 µM (inactive) | > 100 µM (inactive) | 20.6 µM (inactive) | > 100 µM (inactive) | 
N#Cc1cc2c(n(C3OC(CO)C(O)C(O)C3O)c1=S)CCCCC2 (stereo not drawn) | > 100 µM (inactive) | > 100 µM (inactive) | > 100 µM (inactive) | > 100 | > 100 µM (inactive) | > 100 µM (inactive) | > 100 µM (inactive) | > 100 µM (inactive) | > 100 µM (inactive) | > 100 µM (inactive) | > 100 µM (inactive) | > 100 µM (inactive) | > 100 µM (inactive) |  |  | > 100 µM (inactive) | > 100 µM (inactive) | > 100 µM (inactive) | > 100 µM (inactive) | > 100 µM (inactive)
Cc1ccc2nc(-n3c(/C=C/c4ccccc4O)nc4ccccc4c3=O)sc2c1 | > 100 µM (inactive) | 16.5 µM (inactive) | > 100 µM (inactive) | > 100 | > 100 µM (inactive) | > 100 µM (inactive) | > 100 µM (inactive) | > 100 µM (inactive) | > 100 µM (inactive) | > 100 µM (inactive) | 76.4 µM (inactive) |  | > 100 µM (inactive) | > 100 µM (inactive) |  | > 100 µM (inactive) | > 100 µM (inactive) | > 100 µM (inactive) | > 100 µM (inactive) | > 100 µM (inactive)
COC1(OC)C(/C(N)=C\O)=NC(C)(C)N1O | > 100 µM (inactive) | 37.1 µM (inactive) | > 100 µM (inactive) |  | > 100 µM (inactive) | > 100 µM (inactive) | > 100 µM (inactive) | > 100 µM (inactive) | 66.5 µM (inactive) | > 100 µM (inactive) | > 100 µM (inactive) |  | 71.6 µM (inactive) |  |  |  | > 100 µM (inactive) | > 100 µM (inactive) | > 100 µM (inactive) | > 100 µM (inactive)

Source: ChEMBL document CHEMBL1201862, “PubChem BioAssay data set” (2004)
